Assay results as given in patent publication US8603975B2, “Cyclic peptide compounds” (priority 2007, dated 2013).
*1 amine or outer side, *2 acyl side, *3 side chain or, on linkers, in order; H or OH if unused. Where a SMILES comes first, the peptide text is derived from it. [ ]: non-standard residue; d: D form. The star is where a group is joined. X1 = C[C@H](COC(=O)N(C)c1ccccn1)C[C@@H](C(=O)[*:2])N(C)[*:1]; X2 = COCCN(CCOC)C(=O)OC[C@@H](C)C[C@@H](C(=O)[*:2])N(C)[*:1]; X4 = C[C@H](COC(=O)N(C)c1cccnc1)C[C@@H](C(=O)[*:2])N(C)[*:1]; X3 = C[C@H](COC(=O)N1CCN(C)CC1)C[C@@H](C(=O)[*:2])N(C)[*:1]; X6 = C[C@H](COC(=O)N1CCOCC1)C[C@@H](C(=O)[*:2])N(C)[*:1]; NMe(dihydroBmt) = CCCC[C@@H](C)[C@@H](O)[C@H](NC)C(=O)O; X7 = C[C@H](COC(=O)[*:3])C[C@@H](C(=O)[*:2])N(C)[*:1]; MeBmt = C/C=C/C[C@@H](C)[C@@H](O)[C@H](NC)C(=O)O; NMeL = CN[C@@H](CC(C)C)C(=O)O; X8 = CN(c1cnn(CCN2CCOCC2)c1)*; NMeV = CN[C@H](C(=O)O)C(C)C; Sar = CNCC(=O)O

Biological target: HCV replicon
Assay type: cell-based, hepatitis C virus
Settings: HCV replicon cells, D-MEM with 5% fetal bovine serum, luciferase activity after two more days of cultivation, 50% enzyme activity level to control (DMSO only)
Protocol: It is thought that the replication mechanism of the subgenomic HCV RNA in these cell lines is extremely similar to the replication of full length HCV RNA genome in hepatic cells infected with HCV.
The inhibitory activity of the test compounds against the replication of HCV replicon was evaluated by quantifying the activity of luciferase, a reporter gene product encoded in the replicon system reported by Yokota et al., EMBO J 4: 602-608 (2003). The enzyme assay was carried out according to the technical manual of the Steady-Glo(trade mark) luciferase assay system (Promega). The replicon assay was carried out with the modified method reported by Lohmann et al., Science 285: 110 (1999). The details are described in the following.
6×10^3 HCV replicon cells in D-MEM medium containing 5% fetal bovine serum were seeded in each well of a 96-well microtiter plate (Corning Inc.). After the cells were incubated at 37° C. for 16 hours in 5% CO2, the test compound was added.
After cultivation for two more days, the culture medium was removed and 25 μl of Glo Lysis buffer was added to each well and incubated for 5 minutes. Allowing lysis to occur, 25 μl of Steady-Glo(trade mark) assay reagent was added to each well. After incubation for 5 minutes, the luminescence was measured with a luminometer, Mithras LB940 (BERTHOLD TECHNOLOGIES GmbH & Co.KG) following the manufacturer's instructions.
The luciferase activities in replicon cells treated at each concentrations of the compound were employed for the calculation of EC50 value of the each compound, which gave the compound concentration indicating 50% enzyme activity level to the control (no drug group, containing only DMSO).

Row | SMILES | HCV replicon replication inhibitory activity: EC50
1 | C/C=C/C[C@@H](C)[C@@H](O)[C@H]1C(=O)N[C@@H]([C@@H](C)O)C(=O)N(C)[C@H](C)C(=O)N(C)[C@@H](CC(C)C)C(=O)N[C@@H](CC(C)C)C(=O)N(C)[C@@H](CC(C)C)C(=O)N[C@@H](C)C(=O)N[C@H](C)C(=O)N(C)[C@@H](C[C@H](C)COC(=O)N2CCC(C)(OCC)CC2)C(=O)N[C@@H](CC(C)C)C(=O)N(C)[C@@H](C(C)C)C(=O)N1C [Ex 124] | 0.056 µg/mL
2 | C/C=C/C[C@@H](C)[C@@H](O)[C@H]1C(=O)N[C@@H]([C@@H](C)O)C(=O)N(C)CC(=O)N(C)[C@@H](CC(C)C)C(=O)N[C@@H](CC(C)C)C(=O)N(C)[C@@H](CC(C)C)C(=O)N[C@@H](C)C(=O)N[C@H](C)C(=O)N(C)[C@@H](C[C@H](C)COC(=O)N(CCOC)CCOC)C(=O)N[C@@H](CC(C)C)C(=O)N(C)[C@@H](C(C)C)C(=O)N1C [Ex 10] (cyclo([MeBmt]T[Sar][NMeL]L[NMeL]A[dA][X2]L[NMeV])) | 0.18 µg/mL
3 | C/C=C/C[C@@H](C)[C@@H](O)[C@H]1C(=O)N[C@@H]([C@@H](C)O)C(=O)N(C)[C@H](C)C(=O)N(C)[C@@H](CC(C)C)C(=O)N[C@@H](CC(C)C)C(=O)N(C)[C@@H](CC(C)C)C(=O)N[C@@H](C)C(=O)N[C@H](C)C(=O)N(C)[C@@H](C[C@H](C)COC(=O)N(C)CC(F)(F)F)C(=O)N[C@@H](CC(C)C)C(=O)N(C)[C@@H](C(C)C)C(=O)N1C [Ex 145] | 0.022 µg/mL
4 | C/C=C/C[C@@H](C)[C@@H](O)[C@H]1C(=O)N[C@@H]([C@@H](C)O)C(=O)N(C)[C@H](COC)C(=O)N(C)[C@@H](CC(C)C)C(=O)N[C@@H](CC(C)C)C(=O)N(C)[C@@H](CC(C)C)C(=O)N[C@@H](C)C(=O)N[C@H](C)C(=O)N(C)[C@@H](C[C@H](C)COC(=O)N(C)CCOC)C(=O)N[C@@H](CC(C)C)C(=O)N(C)[C@@H](C(C)C)C(=O)N1C [Ex 84] | 0.053 µg/mL
5 | C/C=C/C[C@@H](C)[C@@H](O)[C@H]1C(=O)N[C@@H]([C@@H](C)O)C(=O)N(C)CC(=O)N(C)[C@@H](CC(C)C)C(=O)N[C@@H](CC(C)C)C(=O)N(C)[C@@H](CC(C)C)C(=O)N[C@@H](C)C(=O)N[C@H](C)C(=O)N(C)[C@@H](C[C@H](C)COC(=O)N2CCN(C)CC2)C(=O)N[C@@H](CC(C)C)C(=O)N(C)[C@@H](C(C)C)C(=O)N1C [Ex 8] (cyclo([MeBmt]T[Sar][NMeL]L[NMeL]A[dA][X3]L[NMeV])) | 0.16 µg/mL
6 | C/C=C/C[C@@H](C)[C@@H](O)[C@H]1C(=O)N[C@@H]([C@@H](C)O)C(=O)N(C)CC(=O)N(C)[C@@H](CC(C)C)C(=O)N[C@@H](CC(C)C)C(=O)N(C)[C@@H](CC(C)C)C(=O)N[C@@H](C)C(=O)N[C@H](C)C(=O)N(C)[C@@H](C[C@H](C)COC(=O)N(C)c2cnn(CCN3CCOCC3)c2)C(=O)N[C@@H](CC(C)C)C(=O)N(C)[C@@H](C(C)C)C(=O)N1C [Ex 36] (cyclo([MeBmt]T[Sar][NMeL]L[NMeL]A[dA][X7](X8)L[NMeV])) | 0.09 µg/mL
7 | C/C=C/C[C@@H](C)[C@@H](O)[C@H]1C(=O)N[C@@H]([C@@H](C)O)C(=O)N(C)CC(=O)N(C)[C@@H](CC(C)C)C(=O)N[C@@H](CC(C)C)C(=O)N(C)[C@@H](CC(C)C)C(=O)N[C@@H](C)C(=O)N[C@H](C)C(=O)N(C)[C@@H](C[C@H](C)COC(=O)N2CCOCC2)C(=O)N[C@@H](CC(C)C)C(=O)N(C)[C@@H](C(C)C)C(=O)N1C [Ex 1] (cyclo([MeBmt]T[Sar][NMeL]L[NMeL]A[dA][X6]L[NMeV])) | 0.15 µg/mL
8 | C/C=C/C[C@@H](C)[C@@H](O)[C@H]1C(=O)N[C@@H]([C@@H](C)O)C(=O)N(C)[C@H](C)C(=O)N(C)[C@@H](CC(C)C)C(=O)N[C@@H](CC(C)C)C(=O)N(C)[C@@H](CC(C)C)C(=O)N[C@@H](C)C(=O)N[C@H](C)C(=O)N(C)[C@@H](C[C@H](C)COC(=O)N2CCSCC2)C(=O)N[C@@H](CC(C)C)C(=O)N(C)[C@@H](C(C)C)C(=O)N1C [Ex 130] | 0.031 µg/mL
9 | CCCC[C@@H](C)[C@@H](O)[C@H]1C(=O)N[C@@H]([C@@H](C)O)C(=O)N(C)CC(=O)N(C)[C@@H](CC(C)C)C(=O)N[C@@H](CC(C)C)C(=O)N(C)[C@@H](CC(C)C)C(=O)N[C@@H](C)C(=O)N[C@H](C)C(=O)N(C)[C@@H](C[C@H](C)COC(=O)N(C)c2ccccn2)C(=O)N[C@@H](CC(C)C)C(=O)N(C)[C@@H](C(C)C)C(=O)N1C [Ex 249] (cyclo([NMe(dihydroBmt)]T[Sar][NMeL]L[NMeL]A[dA][X1]L[NMeV])) | 0.07 µg/mL
10 | C/C=C/C[C@@H](C)[C@@H](O)[C@H]1C(=O)N[C@@H]([C@@H](C)O)C(=O)N(C)[C@H](COC)C(=O)N(C)[C@@H](CC(C)C)C(=O)N[C@@H](CC(C)C)C(=O)N(C)[C@@H](CC(C)C)C(=O)N[C@@H](C)C(=O)N[C@H](C)C(=O)N(C)[C@@H](C[C@H](C)COC(=O)N2CC[C@H](OC)C2)C(=O)N[C@@H](CC(C)C)C(=O)N(C)[C@@H](C(C)C)C(=O)N1C [Ex 151] | 0.035 µg/mL
11 | C/C=C/C[C@@H](C)[C@@H](O)[C@H]1C(=O)N[C@@H]([C@@H](C)O)C(=O)N(C)CC(=O)N(C)[C@@H](CC(C)C)C(=O)N[C@@H](CC(C)C)C(=O)N(C)[C@@H](CC(C)C)C(=O)N[C@@H](C)C(=O)N[C@H](C)C(=O)N(C)[C@@H](C[C@H](C)COC(=O)N(C)c2cccnc2)C(=O)N[C@@H](CC(C)C)C(=O)N(C)[C@@H](C(C)C)C(=O)N1C [Ex 39] (cyclo([MeBmt]T[Sar][NMeL]L[NMeL]A[dA][X4]L[NMeV])) | 0.12 µg/mL
